Source: patent publication US4547354A (priority 1983, dated 1985)
Read-outs that look alike come from different tables or passages of the source.

Details: 95° C., 4 hours

Which “% Hydrogen Peroxide Recovery” value (Example 1 of Table II: chlorobenzene 40.0 g, no acetone/methanol) does the source give for `OO` [H2 O2, hydrogen peroxide] here?
Its value is 101%.

And the “Hydrogen Peroxide (mmoles) Recovered” value (Example 1 of Table II: chlorobenzene 40.0 g, no acetone/methanol, 93.6 mmoles in)?
The value was 94.1 mmol.

What about the “% Hydrogen Peroxide Recovery” value (Example 2 of Table II: chlorobenzene 40.0 g, with acetone and methanol) of the same compound?
Its value is 67%.

And the “Hydrogen Peroxide (mmoles) Recovered” value (Example 2 of Table II: chlorobenzene 40.0 g, with acetone and methanol, 104.2 mmoles in)?
The value was 69.4 mmol.

What about the “% Hydrogen Peroxide Recovery” value (Example A: sulfuric acid, no chlorobenzene, no acetone/methanol) of the same compound?
Its value is 107%.

And the “Hydrogen Peroxide (mmoles) Recovered” value (Example A: sulfuric acid, no chlorobenzene, no acetone/methanol, 104.0 mmoles in)?
Its value is 111.7 mmol.

And the “% Hydrogen Peroxide Recovery” value (Example B: no chlorobenzene, with acetone and methanol)?
The value was 3%.

And the “Hydrogen Peroxide (mmoles) Recovered” value (Example B: no chlorobenzene, with acetone and methanol, 104.8 mmoles in)?
The value was 3.2 mmol.
